Measurements: patent publication US4199568A, “Tetrapeptide amides” (Reckitt & Colman Products Limited, priority 1977, dated 1980)

Tests used:
opiate receptor sites = test: transmurally stimulated guinea pig ileum preparation (Kosterlitz and Watt), agonist activity compared with Met-enkephaline; type: cell-based; conditions: isolated guinea pig ileum twitch response, 0.1 Hz stimulation; dose response curve compared with Met-enkephaline
From the text: Thus for example they have affinity for opiate receptor sites and as such may be useful as anagesics, narcotic antagonists or anti-diarrhoeal agents. The test used for the detection of their agonist activity at opiate receptor sites is that of employing the transmurally stimulated guinea pig ileum preparation described in Kosterlitz H. W., and Watt A. J., Brit. J. Pharmacol, and Chemotherapy 33, […] (1968).
In the above mentioned test method of Kosterlitz and Watt male or female guinea pigs (Duncan Hartley strain) are killed by a blow on the head and a portion of the ileum removed and set up in an isolated organ bath of 50 ml volume. A `twitch` response is produced by low frequency (0.1 Hz) stimulation with 0.5 msec rectilinear pulses. The response is depressed by a large number of different pharmacologically active agents (local anaesthetics, smooth muscle depressants, presynaptic α-receptor stimulants, and narcotic agonists).
A test compound is dissolved in distilled water to produce a stock solution of concentration 1 mg/ml. Serial dilutions are carried out using Krebs solution to product concentrations of 10 ug, 1 ug and 0.1 ug/ml. The compound is tested by adding between 0.1-0.3 ml of the solutions to the organ bath. A dose response curve is then drawn and compared with that for Met-enkephaline.

[1] = system: phenylquinone induced writhing; test: mouse phenylquinone induced writhing test (Hendershot and Forsaith); type: in vivo; conditions: administered i.v.
Experimental: The compounds were also evaluated in the mouse phenylquinone induced writhing test of Hendershot L. C. and Forsaith J., J. Pharm. Exp. Therap.

C[C@@H](NC(=O)[C@@H](N)Cc1ccc(O)cc1)C(=O)NCC(=O)N(C)[C@@H](Cc1ccccc1)C(=O)NCCC[S+](C)[O-].Cl (stereo partly drawn) [H-Tyr-D-Ala-Gly-MePhe-NH(CH2)3 SOMe, L-Tyrosyl-D-alanyl-glycyl-N-methyl-L-phenylalanine-3-methylsulphinylpropylamide hydrochloride]
activity relative to Met-enkephaline (opiate receptor sites): approximately eleven | ED50 [1]: 4.5 µg/kg

CN[C@@H](Cc1ccc(O)cc1)C(=O)N[C@H](C)C(=O)NCC(=O)N(C)[C@@H](Cc1ccccc1)C(=O)NCCC[S+](C)[O-].Cl (stereo partly drawn) [Me-Tyr-D-Ala-Gly-MePhe-NH(CH2)3 SOMe, N-Methyl-L-tyrosyl-D-alanyl-glycyl-N-methyl-L-phenylalanine-3-methylsulphinylpropylamide hydrochloride]
activity relative to Met-enkephaline (opiate receptor sites): approximately fifteen | ED50 [1]: 4 µg/kg
